According to patent publication US20200046625A1, “COMPOUNDS USEFUL FOR THE TREATMENT AND/OR CARE OF THE SKIN, HAIR, NAILS AND/OR MUCOUS MEMBRANES” (LUBRIZOL ADVANCED MATERIALS, INC., priority 2016, published 2020):
The star is where a group is joined. Palmitoyl = CCCCCCCCCCCCCCCC(=O)*; Myristoyl = CCCCCCCCCCCCCC(=O)*

How the values were obtained:
[1] = system: primary human subcutaneous pre-adipocyte cells; test: Reduction of lipid accumulation, AdipoRed fluorescent assay; type: cell-based; conditions: 8 days of treatment, PGM2 = 0%, PDM2 basal control = 100%
Experimental: The reduction of the percentage of lipid accumulation in human pre-adipocyte cells in a complete differentiation medium (basal control) is studied by treatment of the cells with the peptides of the invention. Quantification of lipid accumulation is evaluated with AdipoRed™ Assay Reagent (Lonza). Human pre-adipocyte cells (Lonza) are seeded in quadruplicate (10.000 cells/well) on a 96-well plate and they are incubated on a complete growth medium (PGM2, Lonza) for 24 hours at […] in a water-saturated atmosphere composed of 95% air and 5% CO2. The differentiation of pre-adipocytes into adipocytes is induced by changing the complete growth medium (PGM2, Lonza) for the complete differentiation medium (PDM2, Lonza). The cells are treated with the peptides of the invention at different concentrations prepared in complete differentiation medium. Caffeine (Sigma) at 0.2 mg/ml in PDM2 medium is used as a negative control of the lipid accumulation in the cells. Caffeine is the most widely used anti-cellulite cosmetic agent. […] Manufacturer protocol is followed for the use of AdipoRed™ Assay Reagent (Lonza). In brief, the cells are washed and the reagent AdipoRed™ is added diluted (5/200). After being incubated for 15 minutes in darkness and at room temperature, the Relative Fluorescence Units (RFUs) are measured using a fluorescence plate reader (CLARIOstar™, BMG LABTECH), with excitation filter at 485 nm and emission filter at 572 nm. […] The results are calculated as the mean of all the independent experiments carried out in each case for each peptide and concentration assayed.

[2] = system: Nocturnin (CCRN4L) in primary human subcutaneous pre-adipocyte cells; test: Relative level of nocturnin by ELISA, normalized with BCA total protein; type: cell-based; conditions: for Nocturnin level with respect to basal condition (%): 6 days of treatment, mean of 3 independent experiments
Experimental: The decrease in the relative level of nocturnin protein in human pre-adipocytes, cells that form adipose tissue, in a complete differentiation medium (basal condition) is studied when treating the peptides of the invention.
Human pre-adipocytes are seeded (10,000 cells/well, 4 wells per condition) on a 96-well plate and incubated on a complete growth medium (PGM2, LONZA) for 24 hours at 37° C. at an atmosphere with a CO2 level of 5%.
After incubation, the cells are treated with the peptides at 0.1, 0.5 and 1 mg/ml and its respective vehicles prepared in a complete differentiation medium (PDM2, LONZA). After 6 days of treatment at an atmosphere with 37° C. and a 5% CO2 level, the nocturnin level is measured using an ELISA test, and the total protein concentration is measured using a BCA (Bicinchoninic Acid) assay. For each concentration, the ELISA results are normalized with the BCA results. […] The values represent the mean of 3 independent experiments.
The manufacturer protocol of the ELISA kit for Carbon Catabolite Repression 4 Like Protein (CCRN4L) (Uscn Life Science Inc) is followed. In brief, the cells are lysed and the cell extracts are incubated on a 96-well plate coated with an anti-body specific to CCRN4L. Afterwards, the wells are coated with an antibody specific to CCRN4L conjugated with Biotin. Next, the Avidin conjugated with the enzyme Horseradish Peroxidase (HRP) is added to the plate. Finally, 3,3′,5,5′-Tetramethylbenzidine substrate is added to the plate and a change in color is observed proportionally to the quantity of nocturnin in each concentration. Lastly, a sulfuric acid solution is added to stop the enzyme-substrate reaction and quantify the color change with an absorbance reader (CLARIOstar™, BMG LABTECH) at 450 and 570 nm.
The manufacturer protocol of the BCA Protein assay kit (Pierce) is followed. The total protein concentration of the lysed cells is measured via a colorimetric reaction using a protein standard. In brief, the standard and the samples are distributed onto 96-well plates. The plate is then incubated with the reagent of the kit and finally the change in color is measured with the absorbance reader (CLARIOstar, BMG LABTECH) at 570 nm.

Compound	% Lipid Accumulation ([1]; 1 mg/ml) [%]	further results
H-Phe-Tyr-Val-Tyr-Phe-NH2 (H-FYVYF-NH2)	64.31	–
Ac-Tyr-Val-Tyr-NH2	20.81	–
H-Phe-Trp-Tyr-Val-Tyr-NH2 (H-FWYVY-NH2)	–	% Lipid Accumulation ([1]; 0.005 mg/ml): 55.99%
H-Tyr-Val-Tyr-Trp-NH2 (H-YVYW-NH2)	90.32	–
H-Tyr-Leu-Trp-NH2	62.42	–
Ac-Trp-Val-Tyr-NH2	63.18	–
H-Tyr-Val-Tyr-Phe-Trp-NH2 (H-YVYFW-NH2)	76.47	–
H-Tyr-Ile-Tyr-NHC16H33	23.74	–
Palmitoyl-Tyr-Val-Tyr-NH2	–	% Lipid Accumulation ([1]; 0.1 mg/ml): 86.17%
H-Tyr-Met-Tyr-NH2	40.24	–
H-Tyr-Val-Tyr-OH	22.66	Nocturnin level with respect to basal condition (%) ([2]; 0.1 mg/mL): 67%; Nocturnin level with respect to basal condition (%) ([2]; 0.5 mg/mL): 87%; Nocturnin level with respect to basal condition (%) ([2]; 1 mg/mL): 83%; % Lipid Accumulation ([1]; 0.1 mg/ml): 35.14%; % Lipid Accumulation ([1]; 0.5 mg/ml): 33.55%
H-Tyr-Ile-Phe-NH2	47.45	–
H-Tyr-Val-Tyr-NHC6H13	30.79	–
H-Tyr-Ile-Phe-NHC6H13	30.72	–
Myristoyl-Tyr-Val-Phe-NH2	37.77	–
H-Tyr-Val-Tyr-NH2	15.65	Nocturnin level with respect to basal condition (%) ([2]; 0.1 mg/mL): 76%; Nocturnin level with respect to basal condition (%) ([2]; 0.5 mg/mL): 62%; Nocturnin level with respect to basal condition (%) ([2]; 1 mg/mL): 48%; dose-response of nocturnin reduction (in words) ([2]; 0.1, 0.5 and 1 mg/ml): a dose-response relationship is observed; % Lipid Accumulation ([1]; 0.1 mg/ml): 32.65%; % Lipid Accumulation ([1]; 0.5 mg/ml): 18.60%
H-Tyr-Ile-Tyr-NH2	46.63	–
Palmitoyl-Tyr-Leu-Tyr-NH2	25.42	–
H-Tyr-Val-Trp-NH2	61.87	–
Cn1c(=O)c2c(ncn2C)n(C)c1=O [Caffeine, reference compound]	–	% Lipid Accumulation ([1]; 0.2 mg/ml in PDM2): 76.07%
H-Tyr-Ile-Phe-NHC16H33	40.61	–
H-Tyr-Val-Tyr-Phe-NH2 (H-YVYF-NH2)	86.68	–
H-Tyr-Ile-Tyr-NHC6H13	52.82	–
Myristoyl-Tyr-Val-Tyr-NH2	12.40	–
H-Tyr-Val-Tyr-NHC16H33	50.12	–
Palmitoyl-Tyr-Leu-Tyr-OH	–	% Lipid Accumulation ([1]; 0.005 mg/ml): 79.98%
